Laboratory results published in patent US4226883A, “Carbamate derivatives and method for manufacture thereof” (priority 1974, dated 1980).
Converted amounts (≈) assume the structure as drawn. Like-named read-outs stand apart in the source and are kept apart here.

Legend:
[1] = target: cholinesterase (ChE), susceptible strain; test: Inhibition of cholinesterase (acetylthiocholine method), susceptible strain enzyme; type: biochemical, green rice leafhopper, Nephotettix cincticeps; details: 50% inhibition concentration, 30° C. 30 min with inhibitor, read-out: Inhibition of Cholinesterase I50 (M) S
Description: The activity of ChE was performed by the acethyethiocholine method [Ellman (1961), Biochemical Pharmacology 7: 88-95].
[…]. After centrifuged (30,000 g, 10 min.), the supernatant was used as the source of ChE.
(§1) (2) Inhibition: 1.0 ml of enzyme solution was incubated with 0.1 ml of inhibitor which diluted with acetone at 30° C. for 30 min. ((2) solution).
(3) Determination of ChE activity: 1.0 ml of acetylthiochline (3.5/2×10^-2 M), 1.0 ml of DTNB (5,5'-dithiobis-2-nitrobenzoic acid, 2.5×10^-4 M) and 4.0 ml of phosphate buffer (1/15 M, pH 7.4) were added to the (2) solution and incubated at 30° C. for 10 min. After incubation, […] of eserine (2×10^-3 M) was added in order to stop the enzyme reaction and the optical density of the yellow solution was measured at 412 mμ on the spectrophotometer.

[2] = test system: cholinesterase (ChE), resistant strain; type: biochemical, green rice leafhopper, Nephotettix cincticeps; details: for Inhibition of Cholinesterase R/S (resistant ratio): ratio of the resistant strain to the susceptible strain (I50), 30 min; for IC50: resistant strain, 50% inhibition concentration, 30° C. 30 min with inhibitor, read-out: Inhibition of Cholinesterase I50 (M) R
Description: After centrifuged (30,000 g, 10 min.), the supernatant was used as the source of ChE.
as §1
(3) Determination of ChE activity: 1.0 ml of acetylthiochline (3.5/2×10^-2 M), 1.0 ml of DTNB (5,5'-dithiobis-2-nitrobenzoic acid, 2.5×10^-4 M) and 4.0 ml of phosphate buffer (1/15 M, pH 7.4) were added to the (2) solution and incubated at 30° C. for 10 min.

[3] = test system: resistant green rice leafhoppers (R); details: 1440 min
Description: (1) A 20-mg portion of a given test compound was weighed out and dissolved in 10 ml of acetone. The resultant solution was diluted at proper times with acetone.
(2) With a micro-syringe, the acetone solution of the test compound was topically applied to the thoracic region of female green rice leafhoppers at a fixed dose of 0.2 μl per head.
(3) The female green rice leafhoppers thus treated were placed in a plastic cup prepared in advance (measuring 7 cm in diameter and 3.5 cm in depth and containing rice seeds) and kept at a constant temperature of 26±1° C. After 24 hours' standing, the dead insects were counted.
In the case of a mixed insecticide, the LD50 was shown as a total dosage.

[4] = test system: green rice leafhoppers of the strain RN; test: Test Example 3: dust spray test (20 mesh metal gauze cylinder); type: in vivo, Nephotettix cincticeps; details: for mortality at 100 mg/cylinder / mortality at 250 mg/cylinder: 24 hr; for Effect of individual compound (RN), death ratio (%) (Table 9): dust, compound alone, RN strain
Description: The insecticides in the form of dust were tested for insecticidal activity.
(§2) The test for insecticidal activity was performed by the following procedure. […] The dust of a test compound (pulverized by means of a shaking pulverizer made by Taira Kosakusho, Ltd.) was applied onto the tube contents at a prescribed rate by spraying from outside the metal gauze by means of a bell-jar duster. The dust of the test compound was prepared uniformly mixing 2 parts of the dust of the individual compound or 1 part each of the dusts of the mixture components (total 2 parts) and 98 parts of a carrier obtained by mixing talc and clay in equal volumes.

[5] = test system: Culex pipiens pallens immunized against organophosphoric preparations, last larval state; test: Test Example 9 (W.H.O. method): mosquito larvae test; type: in vivo; details: Culex pipiens, 24 h, read-out: Effect of compound used singly, LD50 (Table 16)
Description: (1) An ethyl alcohol solution of each test compound was diluted with water to varying concentrations in the range of from 0.01 to 1.0 ppm.
(2) A 200-ml portion of each solution of a different concentration was placed in a 300-ml beaker. Then 30 test insects were plunged into the solution and then removed.
(3) The insects removed from the solution were kept in a greenhouse at a constant temperature of 25±1° C. for 24 hours. At the end of 24 hours of standing, a count was taken of the number of insects that had died by that time.
The test described above was repeated twice or thrice.

[6] = test system: green rice leafhoppers of the strain RN; test: Test Example 4: dust test with 35 mesh metal gauze; type: in vivo, Nephotettix cincticeps
Description: as §2

[7] = in vivo; details: mouse, po
Description: Different amounts of the suspension were injected into the stomaches of test mice with a metal tube. For the test, male mice of the species ddY were used.

[8] = ratio of the resistant strain to the susceptible strain (LD50)
[9] = 2% dust, 100 mg, read-out: Mortality (%) after 24 hr., 100 mg Spray (Table 7)
[10] = 2% dust, 250 mg, read-out: Mortality (%) after 24 hr., 250 mg Spray (Table 7)

CCNC(=O)Oc1cc(C)cc(C)c1 [Compound 41, 3.5-dimethylphenyl-N-ethylcarbamate]
IC50 [1]: 0.00011 M | Inhibition of Cholinesterase R/S (resistant ratio) [2]: 0.7 | IC50 [2]: 7.9e-05 M | Insecticidal Activity R/S (resistant ratio) [3, 8]: 2.0 | mortality at 100 mg/cylinder [4, 9]: 50% | mortality at 250 mg/cylinder [4, 10]: 70%

CCOC(=O)CC(SP(=S)(OC)OC)C(=O)OCC (stereo not drawn) [Malathion, S-[1,2-bis(ethoxycarbonyl)ethyl]dimethyl phosphorothiolothionate, reference compound]
LC50 [5]: 0.31 µg/mL (≈ 0.938 µM)

CCC(C)c1ccccc1OC(=O)NC (stereo not shown) [Compound 6, 2-sec-butylphenyl-N-methylcarbamate]
Insecticidal Activity R/S (resistant ratio) [3, 8]: 28.4 | mortality at 250 mg/cylinder [4, 10]: 10% | Effect of individual compound (RN), death ratio (%) (Table 9) [4]: 0% | mortality at 100 mg ([6]; Table 10, 35 mesh, 100 mg, 1 hr, read-out: Death ratio (%) 1 hr., Dusting amount 100 mg): 0% | mortality at 100 mg ([6]; Table 10, 35 mesh, 100 mg, 2 hrs, read-out: Death ratio (%) 2 hrs., Dusting amount 100 mg): 0% | mortality at 100 mg ([6]; Table 10, 35 mesh, 100 mg, 4 hrs, read-out: Death ratio (%) 4 hrs., Dusting amount 100 mg): 0% | mortality at 100 mg ([6]; Table 10, 35 mesh, 100 mg, 16 hrs, read-out: Death ratio (%) 16 hrs., Dusting amount 100 mg): 0% | mortality at 100 mg ([6]; Table 10, 35 mesh, 100 mg, 24 hrs, read-out: Death ratio (%) 24 hrs., Dusting amount 100 mg): 0% | mortality at 250 mg ([6]; Table 10, 35 mesh, 250 mg, 1 hr, read-out: Death ratio (%) 1 hr., Dusting amount 250 mg): 0% | mortality at 250 mg ([6]; Table 10, 35 mesh, 250 mg, 2 hrs, read-out: Death ratio (%) 2 hrs., Dusting amount 250 mg): 0% | mortality at 250 mg ([6]; Table 10, 35 mesh, 250 mg, 4 hrs, read-out: Death ratio (%) 4 hrs., Dusting amount 250 mg): 0% | mortality at 250 mg ([6]; Table 10, 35 mesh, 250 mg, 16 hrs, read-out: Death ratio (%) 16 hrs., Dusting amount 250 mg): 0% | mortality at 250 mg ([6]; Table 10, 35 mesh, 250 mg, 24 hrs, read-out: Death ratio (%) 24 hrs., Dusting amount 250 mg): 0% | mortality at 500 mg ([6]; Table 10, 35 mesh, 500 mg, 1 hr, read-out: Death ratio (%) 1 hr., Dusting amount 500 mg): 0% | mortality at 500 mg ([6]; Table 10, 35 mesh, 500 mg, 2 hrs, read-out: Death ratio (%) 2 hrs., Dusting amount 500 mg): 0% | mortality at 500 mg ([6]; Table 10, 35 mesh, 500 mg, 4 hrs, read-out: Death ratio (%) 4 hrs., Dusting amount 500 mg): 0% | mortality at 500 mg ([6]; Table 10, 35 mesh, 500 mg, 16 hrs, read-out: Death ratio (%) 16 hrs., Dusting amount 500 mg): 0% | mortality at 500 mg ([6]; Table 10, 35 mesh, 500 mg, 24 hrs, read-out: Death ratio (%) 24 hrs., Dusting amount 500 mg): 0%

CCCNC(=O)Oc1ccccc1OC(C)C [Compound 83, 2-isopropoxyphenyl-N-n-propylcarbamate]
death ratio (%), mixture with Compound No. 1 ([4]; Table 9, dust mixed with 1, RN): 80.0% | death ratio (%), mixture with Compound No. 6* ([4]; Table 9, dust mixed with 6*, RN): 95.0% | death ratio (%), mixture with Compound No. 24* ([4]; Table 9, dust mixed with 24*, RN): 82.5% | death ratio (%), mixture with Compound No. 35* ([4]; Table 9, dust mixed with 35*, RN): 100% | death ratio (%), mixture with Compound No. 40* ([4]; Table 9, dust mixed with 40*, RN): 82.5% | death ratio (%), mixture with Compound No. 49* ([4]; Table 9, dust mixed with 49*, RN): 50.0% | death ratio (%), mixture with Compound No. 81* ([4]; Table 9, dust mixed with 81*, RN): 100% | death ratio (%), mixture with Compound No. 118* ([4]; Table 9, dust mixed with 118*, RN): 95.0% | death ratio (%), mixture with Carbofuran ([4]; Table 9, dust mixed with Carbofuran, RN): 100% | death ratio (%), mixture with Methomyl ([4]; Table 9, dust mixed with Methomyl, RN): 100% | Effect of individual compound (RN), death ratio (%) (Table 9) [4]: 20.0% | LC50 [5]: > 1 µg/mL

CCCNC(=O)Oc1cc(C)c(N(C)C)c(C)c1 [Compound 120, 3,5-dimethyl-4-dimethylaminophenyl-N-n-propylcarbamate]
LD50 at 168 h [7]: 30 to 300 mg/kg | mortality ([7]; 30 mg/kg): 0% | mortality ([7]; 300 mg/kg): 100%

CCCC(C)c1cccc(OC(=O)NC)c1 (stereo not shown) [Compound 19, 3-sec-amylphenyl-N-methylcarbamate, reference compound]
Insecticidal Activity R/S (resistant ratio) ([3]; green rice leafhopper, in vivo, topical_or_ocular): 9.3 | LD50 at 168 h [7]: 54 mg/kg

CCCNC(=O)Oc1cccc(C(C)CC)c1 (stereo not shown) [Compound 17, 3-sec-butylphenyl-N-n-propylcarbamate]
Insecticidal Activity R/S (resistant ratio) [3, 8]: 1.2 | LD50 at 168 h [7]: 30 to 300 mg/kg | mortality ([7]; 30 mg/kg): 0% | mortality ([7]; 300 mg/kg): 100%

CCCNC(=O)Oc1ccccc1C(C)CC (stereo not shown) [Compound 8, 2-sec-butylphenyl-N-n-propylcarbamate]
Insecticidal Activity R/S (resistant ratio) [3, 8]: 1.2 | mortality at 250 mg/cylinder [4, 10]: 80% | LC50 [5]: > 1 µg/mL

CCC(C)c1cccc(OC(=O)NC)c1 (stereo not shown) [Compound 15, 3-sec-butylphenyl-N-methylcarbamate, reference compound]
Insecticidal Activity R/S (resistant ratio) [3, 8]: 19.0 | LD50 at 168 h [7]: 87 mg/kg

CCCNC(=O)Oc1cc(C)cc(C)c1 [Compound 42, 3,5-dimethylphenyl-N-n-propylcarbamate]
Insecticidal Activity R/S (resistant ratio) [3, 8]: 0.7 | mortality at 100 mg/cylinder [4, 9]: 70% | mortality at 250 mg/cylinder [4, 10]: 95% | mortality at 100 mg/cylinder ([4]; Table 8, dust 100 mg, read-out: Mortality (%) after 24 hr., Spray Volume 100 mg): 70% | mortality at 250 mg/cylinder ([4]; Table 8, dust 250 mg, read-out: Mortality (%) after 24 hr., Spray Volume 250 mg): 95% | LC50 [5]: > 1 µg/mL

CCCNC(=O)Oc1ccc(C)c(C)c1 [Compound 37, 3,4-dimethylphenyl-N-n-propylcarbamate]
Insecticidal Activity R/S (resistant ratio) [3, 8]: 0.8 | mortality at 100 mg/cylinder [4, 9]: 60% | mortality at 250 mg/cylinder [4, 10]: 90% | LC50 [5]: > 1 µg/mL

CCCCNC(=O)Oc1ccccc1C(C)CC (stereo not shown) [Compound 9]
IC50 [1]: > 0.001 M | Inhibition of Cholinesterase R/S (resistant ratio) [2]: < 0.1 | IC50 [2]: 0.00014 M | Insecticidal Activity R/S (resistant ratio) [3, 8]: < 1.0

CCc1cccc(OC(=O)NC)c1 [Compound 29, reference compound]
IC50 [1]: 2.9e-06 M | Inhibition of Cholinesterase R/S (resistant ratio) [2]: 41.4 | IC50 [2]: 0.00012 M | Insecticidal Activity R/S (resistant ratio) [3, 8]: 14.9

CNC(=O)Oc1cccc2ccccc12 [Compound 49, 1-naphthyl-N-methylcarbamate]
Effect of individual compound (RN), death ratio (%) (Table 9) [4]: 0% | mortality at 100 mg ([6]; 1 h, read-out: Death ratio (%) 1 hr., Dusting amount 100 mg): 0% | mortality at 250 mg ([6]; 1 h, read-out: Death ratio (%) 1 hr., Dusting amount 250 mg): 0% | mortality at 500 mg ([6]; 1 h, read-out: Death ratio (%) 1 hr., Dusting amount 500 mg): 0% | mortality at 100 mg ([6]; 2 h, read-out: Death ratio (%) 2 hrs., Dusting amount 100 mg): 0% | mortality at 250 mg ([6]; 2 h, read-out: Death ratio (%) 2 hrs., Dusting amount 250 mg): 0% | mortality at 500 mg ([6]; 2 h, read-out: Death ratio (%) 2 hrs., Dusting amount 500 mg): 0% | mortality at 100 mg ([6]; 4 h, read-out: Death ratio (%) 4 hrs., Dusting amount 100 mg): 0% | mortality at 250 mg ([6]; 4 h, read-out: Death ratio (%) 4 hrs., Dusting amount 250 mg): 0% | mortality at 500 mg ([6]; 4 h, read-out: Death ratio (%) 4 hrs., Dusting amount 500 mg): 0% | mortality at 100 mg ([6]; 16 h, read-out: Death ratio (%) 16 hrs., Dusting amount 100 mg): 0% | mortality at 250 mg ([6]; 16 h, read-out: Death ratio (%) 16 hrs., Dusting amount 250 mg): 0% | mortality at 500 mg ([6]; 16 h, read-out: Death ratio (%) 16 hrs., Dusting amount 500 mg): 0% | mortality at 100 mg ([6]; 24 h, read-out: Death ratio (%) 24 hrs., Dusting amount 100 mg): 0% | mortality at 250 mg ([6]; 24 h, read-out: Death ratio (%) 24 hrs., Dusting amount 250 mg): 0% | mortality at 500 mg ([6]; 24 h, read-out: Death ratio (%) 24 hrs., Dusting amount 500 mg): 0%
